pIC50: −log10 of the molar value.
What was measured:
[1] = tested on: antigen-induced bronchoconstriction; experiment: Inhibiting effect on antigen-induced bronchoconstriction in guinea pigs (modified Konzett-Rossler method); type: in vivo; settings: guinea pig, 1 mg/kg intravenously 5 minutes before the antigen challenge, vs control group
Protocol: Example 2 Inhibiting Effect on Antigen-induced Bronchoconstriction in Guinea Pigs
(1) Preparation of Rabbit Anti-ovalbumin (OA) Serum
A white rabbit (body weight: about 3 kg; New Zealand white: […] LABES) was immunized by an intramuscular administration of 1.0 mL of an emulsion of 0.5 mL of a 10% OA (Grade III, Sigma) solution and 0.5 mL of Freund Complete Adjuvant (WAKO PURE CHEMICAL […], LTD.). This procedure was conducted once every week repetitively 4 times in total. One week after the final immunization, the whole blood was sampled. The blood sample was allowed to stand at room temperature for 1 hour or longer, and then in a refrigeration room for a day. On the following day, the serum fraction was isolated and centrifuged (3000 rpm, 10 min.), and the supernatant was stored as an antiserum at −20° C.
(2) Antigen-induced Bronchoconstriction
The bronchoconstriction was measured by a modified Konzett-Rossler method. Each male Hartley guinea pig weighing 400 to 500 g (NIPPON SLC, Shizuoka) was anesthetized with ether, treated intravenously with 1.0 mL of a 8- to 16-fold diluted anti-OA serum, and subjected to an experiment after 16 to 24 hours. Under an anesthesia with urethane (1.2 g/kg ip) (Aldrich), a tracheal cannula was inserted, and gallamine triethiodide (1 mg/kg iv) (Sigma) was administered to arrest the spontaneous respiration. The animal was ventilated artificially using an artificial respirator (Harvard model 683) at 70 respirations/minutes, with each ventilation volume of 2 to 3 mL and initial load of 10 cmH2O, and the intratracheal pressure was measured at the side arm of the tracheal cannula using a differential pressure type transducer. Mepyramine maleate (1.0 mg/kg) (Sigma) and propranolol (1.0 mg/kg) (Sigma) were administered intravenously 2 minutes after the administration of gallamine triethiodide, and after further 2 minutes the OA antigen (1.0 mg/kg) was administered intravenously to induce the bronchoconstriction.
A compound of Example was dissolved in 25% dimethylacetamide, 25% polyethylene glycol 400 and 50% physiological saline, and administered intravenously 5 minutes before the antigen challenge at a dose of 1 mg/kg. Percent inhibition was calculated based on the comparison with a control group (intravenous administration of a mixture of 25% dimethylacetamide, 25% polyethylene glycol 400 and 50% physiological saline).

[2] = target: T1, recombinant human brain-derived phosphodiesterase 4D3 (Homo sapiens, UniProt Q08499); experiment: Assay of phosphodiesterase IV-inhibiting effect (SPA, [3H]cAMP); type: biochemical; settings: recombinant human brain-derived phosphodiesterase 4D3, SPA with [3H]cAMP, 30 minutes at 30° C.; read-out: PDE IV-inhibiting effect (IC50)
T1 construct: GST (N); made in house; host or cells: Escherichia coli BL21 (BL21/pPDE4D3, FERM BP-7075)
T1 sequence (Q08499 1-673 isoform Q08499-2): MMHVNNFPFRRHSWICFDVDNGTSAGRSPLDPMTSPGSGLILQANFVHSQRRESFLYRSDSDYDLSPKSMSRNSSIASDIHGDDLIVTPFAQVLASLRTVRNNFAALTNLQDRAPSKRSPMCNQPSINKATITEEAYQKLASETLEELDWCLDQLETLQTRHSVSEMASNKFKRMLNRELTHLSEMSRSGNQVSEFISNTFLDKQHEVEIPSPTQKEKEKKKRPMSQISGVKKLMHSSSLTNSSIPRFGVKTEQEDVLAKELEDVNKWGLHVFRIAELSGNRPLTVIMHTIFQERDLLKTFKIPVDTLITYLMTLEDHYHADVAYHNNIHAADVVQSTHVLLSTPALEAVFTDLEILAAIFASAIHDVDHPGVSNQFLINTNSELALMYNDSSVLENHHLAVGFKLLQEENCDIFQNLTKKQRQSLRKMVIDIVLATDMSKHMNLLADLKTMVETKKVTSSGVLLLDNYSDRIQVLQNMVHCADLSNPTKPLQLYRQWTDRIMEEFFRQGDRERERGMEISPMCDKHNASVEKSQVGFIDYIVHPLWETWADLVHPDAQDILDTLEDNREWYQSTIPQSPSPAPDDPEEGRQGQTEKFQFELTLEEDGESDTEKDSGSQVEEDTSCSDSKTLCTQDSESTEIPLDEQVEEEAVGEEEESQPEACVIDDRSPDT
Text: Experiment Example 1 Assay of Phosphodiesterase IV-inhibiting Effect
(1) Human Brain-derived Phosphodiesterase 4D3-encoding Gene Cloning
From a human brain cDNA library, a gene encoding phosphodiesterase 4D3 was cloned. […] The resultant PCR product was subjected to an agarose gel electrophoresis and an about 2.4 kb DNA fragment was recovered. This fragment was made blunt using a Pfu DNA polymerase ([…]) and then a phosphodiesterase 4D3 gene was cloned using Zero Blunt PCR Cloning Kit (Invitrogen).
(2) Construction of E.coli Expression Vector
The plasmid obtained in Section (1) described above was digested with a restriction enzyme EcoRI (Takara) and subjected to an agarose gel electrophoresis to recover an about 2.4 kb DNA fragment. […] This cDNA fragment was transformed into an E.coli BL21 (FUNAKOSHI) using a ligation solution, whereby obtaining an Escherichia coli BL21/pPDE4D3 capable of expressing the phosphodiesterase 4D3 gene.
(3) Expression of Recombinant Human Brain-derived Phosphodiesterase 4D3 in Escherichia coli and Purification Thereof
Using the Escherichia coli BL21/pPDE4D3 obtained in Section (2) described above, a recombinant human brain-derived phosphodiesterase 4D3 was obtained. The expression and purification of E. coli were in accordance with the protocol attached to GST Gene Fusion System (Pharmacia).
(4) Assay of Phosphodiesterase IV-inhibiting Effect
To a 96-well plate (OPTI plate, Packard), 10 μl of a buffer solution [0.5 M Tris-HCl (pH7.5), 83 mM MgCl2, 17 mM EGTA], 10 μl of the recombinant human brain-derived phosphodiesterase 4D3 (0.0034 mg/mL) obtained in […] described above, 65 μl of Ultrapure water, 5 μl of an inhibitor sample and 10 μl of [^3H]cAMP were added and reacted for 30 minutes at 30° C. After completing the reaction, 50 μl of SPA beads solution [18 mg/mL Yttrium silicate beads, 18 mM ZnSO4] was added, allowed to stand at room temperature for about 20 minutes, and the radioactivity was counted using a scintillation counter (Topcount, Packard). […] This assay system was employed to determine the recombinant human brain-derived phosphodiesterase-inhibiting effect (IC50) of each inventive compound.

| SMILES | % inhibition in bronchoconstriction [1] | pIC50 [2] |
| --- | --- | --- |
| COc1cc2c(c3c1OC(C)(C)C3)C(c1cccc(NC(=O)C[S+](C)[O-])c1)=NC(C)(C)C2 (centres unmarked) [Example 39, 2-(Methylsulfinyl)-N-[3-(3,4,8,9-tetrahydro-6-methoxy-3,3,8,8-tetramethylfuro[2,3-h]isoquinolin-1-yl)phenyl]acetamide] | 45% | 7.71 |
| COc1cc2c(c3c1OC(C)(C)C3)C(c1cccc(N(S(C)(=O)=O)S(C)(=O)=O)c1)=NC(C)(C)C2 [Example 45, N-(Methylsulfonyl)-N-[3-(3.4,8,9-tetrahydro-6-methoxy-3,3,8,8-tetramethylfuro[2,3-h]isoquinolin-1-yl)phenyl]methanesulfonamide] | 44% | 8.03 |
| COc1cc2c(c3c1OC(C)(C)C3)C(c1cccc(C(=O)NCCc3ccncc3)c1)=NC(C)(C)C2 [Example 149, N-[2-(4-Pyridinyl)ethyl]-3-(3,4.8,9-tetrahydro-6-methoxy-3,3,8,8-tetramethylfuro[2,3-h]isoquinolin-1-yl)benzamide] | 58% | 7.40 |
| COc1cc2c(c3c1OC(C)(C)C3)C(c1cccc(C(=O)NCC(N)=O)c1)=NC(C)(C)C2 [Example 157, N-(2-Amino-2-oxoethyl)-3-(3,4,8,9-tetrahydro-6-methoxy-3,3,8,8-tetramethylfuro[2,3-h]isoquinolin-1-yl)benzamide] | 57% | 7.09 |
| CNC(=O)c1cccc(C2=NC(C)(C)Cc3cc(OC)c4c(c32)CC(C)(C)O4)c1 [Example 179, N-Methyl-3-(3,4,8,9-tetrahydro-6-methoxy-3,3,8,8-tetramethylfuro[2,3-h]isoquinolin-1-yl)benzamide] | 46% | 6.91 |
| CCNC(=O)c1cccc(C2=NC(C)(C)Cc3cc(OC)c4c(c32)CC(C)(C)O4)c1 [Example 180, N-Ethyl-3-(3,4,8,9-tetrahydro-6-methoxy-3,3,8,8-tetramethylfuro[2,3-h]isoquinolin-1-yl)benzamide] | 57% | 6.91 |
| COc1cc2c(c3c1OC(C)(C)C3)C(c1cccc(-c3cccc(NC(C)=O)c3)c1)=NC(C)(C)C2 [Example 263, N-[3′-(3,4,8,9-Tetrahydro-6-methoxy-3,3,8,8-tetramethylfuro[2,3-h]isoquinolin-1-yl)[1,1′-biphenyl]-3-yl]acetamide] | 59% | 7.86 |
